# Assay results: ChEMBL document CHEMBL3272248, “beta-Adrenergic blocking agents. 18. 1-(Aryloxy)-3-(arylthioalkylamino)propan-2-ols and 1-substituted alkylthioamino-3-(aryloxy)propan-2-ols” (1978)
# Activity calls are given as the source filed them. The rule behind the calls is not given here.
# Experiments:
# [1] = system: Felis catus; assay: In vivo inhibition of beta-1 adrenergic receptor in iv dosed cat assessed as inhibition of isoproterenol-induced trachycardia after 30 mins; format: functional; settings: 0.5 h
# [2] = system: Felis catus; assay: In vivo inhibition of beta-2 adrenergic receptor in iv dosed cat assessed as inhibition of isoproterenol-induced vasodepressor response after 30 mins; format: functional
# [3] = system: Felis catus; assay: In vivo inhibition of beta-1 adrenergic receptor in cat assessed as inhibition of isoproterenol-induced trachycardia at 200 ug/kg/min, iv after 30 mins; format: functional, organism-based
smiles,measurement,setting,value
[O-][S+](CCNCC(O)COc1ccccc1)c1ccc(Cl)cc1 (stereo unspecified),ED50,[1],0.08 mg/kg
same,inhibition (INH),[2],0%
C=CCc1ccccc1OCC(O)CNCCCSCC.O=C(O)C(=O)O (stereo unspecified),ED50,[1],0.72 mg/kg
same,inhibition (INH),[2],65%
O=C(O)C(=O)O.[O-][S+](CCCNCC(O)COc1ccccc1)C1CCCCC1 (stereo unspecified),ED50,[1],0.162 mg/kg
same,inhibition (INH),[2],68%
Cc1ccc(SCCNCC(O)COc2ccccc2)cc1 (stereo unspecified),ED50,[1],0.289 mg/kg
same,inhibition (INH),[2],43%
CC(CSc1ccccc1)NCC(O)COc1ccccc1.O=C(O)C(=O)O (stereo unspecified),ED50,[1],0.016 mg/kg
same,inhibition (INH),[2],0%
Cc1ccccc1OCC(O)CNCCSCc1ccccc1 (stereo unspecified),inhibition,[3],inactive
CC(CSc1ccccc1)NCC(O)COc1ccccc1Cl.O=C(O)C(=O)O (stereo unspecified),ED50,[1],0.058 mg/kg
same,inhibition (INH),[2],60%
CC[S+]([O-])CCNCC(O)COc1ccccc1.O=C(O)C(=O)O (stereo unspecified),ED50,[1],0.195 mg/kg
same,inhibition (INH),[2],10%
O=[N+]([O-])c1ccccc1OCC(O)CNCCCSC1CCCCC1 (stereo unspecified),inhibition,[3],inactive
O=C(O)C(=O)O.[O-][S+](CCNCC(O)COc1ccccc1)Cc1ccccc1 (stereo unspecified),ED50,[1],0.156 mg/kg
same,inhibition (INH),[2],20%
O=C(O)C(=O)O.OC(CNCCCSC1CCCCC1)COc1ccccc1 (stereo unspecified),ED50,[1],0.781 mg/kg
same,inhibition (INH),[2],37%
CCC(C)(C)CSCCCNCC(O)COc1ccccc1.O=C(O)C(=O)O (stereo unspecified),ED50,[1],0.083 mg/kg
same,inhibition (INH),[2],0%
Cc1cccc(OCC(O)CNCCSc2ccccc2)c1 (stereo unspecified),inhibition,[3],inactive
O=C(O)C(=O)O.OC(CNCCSCc1ccccc1)COc1ccccc1 (stereo unspecified),ED50,[1],0.207 mg/kg
COc1ccccc1OCC(O)CNCCSc1ccccc1 (stereo unspecified),inhibition,[3],inactive
Cc1ccc(SCCCNCC(O)COc2ccccc2[N+](=O)[O-])cc1 (stereo unspecified),inhibition,[3],inactive
CCSCCNCC(O)COc1ccccc1[N+](=O)[O-] (stereo unspecified),inhibition,[3],inactive
[O-][S+](CCNCC(O)COc1ccccc1)c1ccccc1 (stereo unspecified),ED50,[1],0.044 mg/kg
same,inhibition (INH),[2],0%
CCSCCCNCC(O)COc1ccccc1OC.O=C(O)C(=O)O (stereo unspecified),ED50,[1],0.285 mg/kg
same,inhibition (INH),[2],70%
CCSCCCNCC(O)COc1ccc([N+](=O)[O-])cc1 (stereo unspecified),inhibition,[3],inactive
CCSCCCNCC(O)COc1ccccc1.O=C(O)C(=O)O (stereo unspecified),ED50,[1],0.838 mg/kg
same,inhibition (INH),[2],14%
Cc1ccccc1OCC(O)CNCCOc1ccc(C(N)=O)cc1 (stereo unspecified) [TOLAMOLOL],inhibition (INH),[2],81%
CC(C)SCCCNCC(O)COc1ccccc1.O=C(O)C(=O)O (stereo unspecified),ED50,[1],0.333 mg/kg
same,inhibition (INH),[2],0%
CCSCCCNCC(O)COc1ccc(OC)cc1 (stereo unspecified),inhibition,[3],inactive
OC(CNCCSCc1ccccc1)COc1ccccc1Cl (stereo unspecified),inhibition,[3],inactive
CCSCCCNCC(O)COc1ccccc1[N+](=O)[O-].O=C(O)C(=O)O (stereo unspecified),ED50,[1],0.13 mg/kg
same,inhibition (INH),[2],12%
CCSCCCNCC(O)COc1ccc(CC(N)=O)cc1 (stereo unspecified),inhibition,[3],inactive
O=[N+]([O-])c1ccccc1OCC(O)CNCCSCc1ccccc1 (stereo unspecified),ED50,[1],0.946 mg/kg
same,inhibition (INH),[2],0%
N#Cc1ccccc1OCC(O)CNCCSc1ccccc1 (stereo unspecified),inhibition,[3],inactive
Cc1ccc(SCCCNCC(O)COc2ccccc2)cc1.Cl (stereo unspecified),ED50,[1],1.26 mg/kg
same,inhibition (INH),[2],11%
CCCc1ccccc1OCC(O)CNCCCSCC (stereo unspecified),inhibition,[3],inactive
O=S(=O)(CCNCC(O)COc1ccccc1)c1ccccc1 (stereo unspecified),ED50,[1],1.33 mg/kg
same,inhibition (INH),[2],53%
Cl.OC(CNCCCSc1ccccc1)COc1ccccc1 (stereo unspecified),ED50,[1],0.415 mg/kg
CCSCCNCC(O)COc1ccccc1C#N.O=C(O)C(=O)O (stereo unspecified),ED50,[1],0.2 mg/kg
O=[N+]([O-])c1ccccc1OCC(O)CNCCC[S+]([O-])C1CCCCC1 (stereo unspecified),inhibition,[3],inactive
CCSCCCNCC(O)COc1ccccc1Br.O=C(O)C(=O)O (stereo unspecified),ED50,[1],0.212 mg/kg
same,inhibition (INH),[2],0%
O=C(O)C(=O)O.O=[N+]([O-])c1ccccc1OCC(O)CNCCSC1CCCCC1 (stereo unspecified),ED50,[1],0.427 mg/kg
same,inhibition (INH),[2],37%
CCSCCNCC(O)COc1ccccc1.Cl (stereo unspecified),ED50,[1],0.332 mg/kg
same,inhibition (INH),[2],0%
Cc1ccccc1OCC(O)CNCC[S+]([O-])c1ccccc1.O=C(O)C(=O)O (stereo unspecified),ED50,[1],0.799 mg/kg
same,inhibition (INH),[2],54%
Cc1ccccc1OCC(O)CNCCSc1ccccc1 (stereo unspecified),ED50,[1],1.55 mg/kg
same,inhibition (INH),[2],53%
OC(CNCCSc1ccccc1)COc1ccccc1 (stereo unspecified),ED50,[1],0.138 mg/kg
same,inhibition (INH),[2],13%
CCSCCCNCC(O)COc1ccccc1Cl (stereo unspecified),ED50,[1],0.269 mg/kg
same,inhibition (INH),[2],52%
Cc1ccccc1OCC(O)CNCCCSc1ccccc1 (stereo unspecified),inhibition,[3],inactive
COc1ccccc1SCCNCC(O)COc1ccccc1.O=C(O)C(=O)O (stereo unspecified),ED50,[1],0.482 mg/kg
same,inhibition (INH),[2],24%
CC(C)(CSc1ccccc1)NCC(O)COc1ccccc1.O=C(O)C(=O)O (stereo unspecified),ED50,[1],0.065 mg/kg
same,inhibition (INH),[2],40%
COc1ccc(OCC(O)CNCCSc2ccccc2)cc1 (stereo unspecified),inhibition,[3],inactive
CC(C)(C[S+]([O-])c1ccccc1)NCC(O)COc1ccccc1.O=C(O)C(=O)O (stereo unspecified),ED50,[1],0.185 mg/kg
same,inhibition (INH),[2],84%
CCSCCCNCC(O)COc1ccccc1C#N.O=C(O)C(=O)O (stereo unspecified),ED50,[1],0.135 mg/kg
same,inhibition (INH),[2],0%
Cc1ccc([S+]([O-])CCNCC(O)COc2ccccc2)cc1 (stereo unspecified),ED50,[1],0.121 mg/kg
same,inhibition (INH),[2],13%
CC(CNCC(O)COc1ccccc1)Sc1ccccc1.O=C(O)C(=O)O (stereo unspecified),ED50,[1],0.559 mg/kg
same,inhibition (INH),[2],18%
Cl.OC(CNCCSC1CCCCC1)COc1ccccc1 (stereo unspecified),ED50,[1],0.162 mg/kg
same,inhibition (INH),[2],0%
OC(CNCCSc1ccc(Cl)cc1)COc1ccccc1 (stereo unspecified),inhibition,[3],inactive
O=C(O)C(=O)O.OC(CNCCSc1ccccc1)COc1ccccc1Cl (stereo unspecified),ED50,[1],1.46 mg/kg
same,inhibition (INH),[2],0%
CCSCCCNCC(O)COc1ccc(NC(C)=O)cc1 (stereo unspecified),inhibition,[3],inactive
O=C(O)C(=O)O.O=[N+]([O-])c1ccccc1OCC(O)CNCCCS(=O)(=O)C1CCCCC1 (stereo unspecified),ED50,[1],1.46 mg/kg
same,inhibition (INH),[2],75%
CC(NCC(O)COc1ccccc1)C(C)Sc1ccccc1.O=C(O)C(=O)O (stereo unspecified),ED50,[1],0.195 mg/kg
same,inhibition (INH),[2],32%
